Here are results for one molecule from ChEMBL document CHEMBL5543125, “Discovery of 2,3-Dihydro[1,4]dioxino[2,3-g]benzofuran Derivatives as Protease Activated Receptor 4 (PAR4) Antagonists with Potent Antiplatelet Aggregation Activity and Low Bleeding Tendency” (J Med Chem, 2024).

Data set [1] in a line: Metabolic stability in human liver microsomes assessed as half life at 1 uM preincubated for 1 hr followed by NADPH addition and measured upto 60 mins by LC-MS/MS analysis. The class given is ADME, Microsome. To be noted: time < 120 min. (In general: Liver microsomes are a subcellular fraction often used to study metabolism.)
The subject of data set [2] is Platelet. Nature of the data set: Inhibition of platelet aggregation in human platelet rich plasma preincubated for 5 mins followed by aggregation inducer addition and measured after 5 mins by light transmission aggregometry. It counts as functional, cell-based.
The subject of data set [3] is Platelet. Nature of the data set: Inhibition of platelet aggregation in human platelet rich plasma at 20 uM preincubated for 5 mins followed by aggregation inducer addition and measured after 5 mins by light transmission aggregometry relative to control. It counts as functional. To be noted: 10 min.
The target in data set [4] is T1, Proteinase-activated receptor 4 (Homo sapiens) (UniProt Q96RI0).
T1 sequence (whole entry): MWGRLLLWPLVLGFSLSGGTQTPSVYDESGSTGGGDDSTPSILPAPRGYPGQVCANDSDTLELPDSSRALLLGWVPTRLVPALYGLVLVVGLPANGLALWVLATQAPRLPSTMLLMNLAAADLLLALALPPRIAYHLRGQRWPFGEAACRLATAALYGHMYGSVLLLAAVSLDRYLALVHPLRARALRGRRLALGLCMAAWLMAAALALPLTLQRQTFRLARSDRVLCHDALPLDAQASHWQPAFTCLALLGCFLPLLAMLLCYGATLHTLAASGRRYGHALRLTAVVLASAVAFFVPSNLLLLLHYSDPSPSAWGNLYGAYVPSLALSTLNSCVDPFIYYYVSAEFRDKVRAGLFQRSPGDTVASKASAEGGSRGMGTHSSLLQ
Nature of the data set: Antagonist activity at PAR4 in human plasma assessed as inhibition of PAR4-activated peptide AYPGPK-NH2 induced platelet aggregation by measuring residual aggregation rate at 20 nM to 1 uM preincubated for 5 mins followed by aggregation inducer addition and measured after 5 mins by light transmission aggregometry relative to control. It counts as functional, cell-free. The settings on record: filed as antagonist, dose 20-1000 nM, time 10.0 min.

Data set [5] deals with Platelet. Description: Antiplatelet aggregation activity in human plasma assessed as inhibition of thrombin induced platelet aggregation by measuring residual aggregation rate at 20 nM to 1 uM preincubated for 5 mins followed by aggregation inducer addition and measured after 5 mins by light transmission aggregometry relative to control. It counts as functional. To be noted: dose 20-1000 nM, time 10 min, at 20 to 1000 nM.

In data set [6] the target is T2, Proteinase-activated receptor 1 (Homo sapiens) (UniProt P25116).
T2 sequence (whole entry): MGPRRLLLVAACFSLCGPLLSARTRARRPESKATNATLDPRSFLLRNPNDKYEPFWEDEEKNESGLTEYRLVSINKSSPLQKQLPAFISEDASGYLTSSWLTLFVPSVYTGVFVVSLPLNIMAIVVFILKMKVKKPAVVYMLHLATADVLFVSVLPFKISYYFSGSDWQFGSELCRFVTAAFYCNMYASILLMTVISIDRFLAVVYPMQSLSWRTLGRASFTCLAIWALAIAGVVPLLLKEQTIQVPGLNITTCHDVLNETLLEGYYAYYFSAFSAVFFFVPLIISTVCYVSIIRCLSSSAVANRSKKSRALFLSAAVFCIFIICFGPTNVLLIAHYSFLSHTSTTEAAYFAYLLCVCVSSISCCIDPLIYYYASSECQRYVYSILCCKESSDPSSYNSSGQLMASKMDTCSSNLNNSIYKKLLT
Nature of the data set: Antagonist activity at PAR1 in human plasma assessed as inhibition of PAR1-activated peptide SFLLRNPNDKY induced platelet aggregation at 20 nM to 1 uM preincubated for 5 mins followed by aggregation inducer addition and measured after 5 mins by light transmission aggregometry. The class given is functional, cell-free. To be noted: dose 20-1000 nM, time 10.0 min.

The subject of data set [7] is Platelet. Nature of the data set: Antagonist activity at P2Y1/P2Y12 in human plasma assessed as inhibition of ADP-induced platelet aggregation at 20 nM to 1 uM preincubated for 5 mins followed by aggregation inducer addition and measured after 5 mins by light transmission aggregometry. The class given is cell-free. The settings on record: dose 20-1000 nM, time 10.0 min.

In data set [8] the target is T3, Platelet glycoprotein VI (Homo sapiens) (UniProt Q9HCN6).
T3 sequence (whole entry): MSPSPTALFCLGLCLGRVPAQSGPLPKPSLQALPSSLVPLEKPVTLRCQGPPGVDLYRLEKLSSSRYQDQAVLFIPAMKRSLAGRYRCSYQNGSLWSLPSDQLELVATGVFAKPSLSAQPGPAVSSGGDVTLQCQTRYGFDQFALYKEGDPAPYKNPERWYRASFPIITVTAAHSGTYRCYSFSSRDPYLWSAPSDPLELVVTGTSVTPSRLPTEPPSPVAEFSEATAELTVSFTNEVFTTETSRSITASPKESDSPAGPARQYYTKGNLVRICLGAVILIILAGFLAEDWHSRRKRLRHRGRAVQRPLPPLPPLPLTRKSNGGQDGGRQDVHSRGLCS
Nature of the data set: Antagonist activity at GPVI in human plasma assessed as inhibition of collagen-induced platelet aggregation at 20 nM to 1 uM preincubated for 5 mins followed by aggregation inducer addition and measured after 5 mins by light transmission aggregometry. It counts as cell-free. The settings on record: dose 20-1000 nM, time 10.0 min.

Data set [9] deals with T4, Thromboxane A2 receptor (Homo sapiens) (UniProt P21731).
T4 sequence (whole entry): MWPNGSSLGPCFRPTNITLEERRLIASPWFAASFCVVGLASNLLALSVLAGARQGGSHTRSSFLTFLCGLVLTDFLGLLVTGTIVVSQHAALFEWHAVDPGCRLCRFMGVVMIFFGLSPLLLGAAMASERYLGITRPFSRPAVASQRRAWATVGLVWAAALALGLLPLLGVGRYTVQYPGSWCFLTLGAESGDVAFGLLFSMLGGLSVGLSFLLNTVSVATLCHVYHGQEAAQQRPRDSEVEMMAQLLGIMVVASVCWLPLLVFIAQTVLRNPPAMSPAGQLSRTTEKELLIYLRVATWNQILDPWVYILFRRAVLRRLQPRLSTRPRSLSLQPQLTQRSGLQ
Description: Antagonist activity at thromboxane A2 receptor in human plasma assessed as inhibition of U46619-induced platelet aggregation at 20 nM to 1 uM preincubated for 5 mins followed by aggregation inducer addition and measured after 5 mins by light transmission aggregometry. The settings on record: dose 20-1000 nM, time 10.0 min. It counts as functional, cell-free.

The test system of data set [10] is Platelet. Nature of the data set: Antagonist activity at GPIB/vWF in human plasma assessed as inhibition of ristocetin-induced platelet aggregation at 20 nM to 1 uM preincubated for 5 mins followed by aggregation inducer addition and measured after 5 mins by light transmission aggregometry. The class given is cell-free. To be noted: dose 20-1000 nM, time 10.0 min.

For data set [11], the target named is T1, Proteinase-activated receptor 4 (Homo sapiens). Description: Antagonist activity at PAR4 in human filtered plasma assessed as inhibition of PAR4-activated peptide AYPGPK-NH2 induced platelet aggregation at 3 nM preincubated for 5 mins followed by aggregation inducer addition and measured after 5 mins by light transmission aggregometry. The class given is functional, cell-free. The settings on record: filed as antagonist, time 10.0 min.

The target is the same in data set [12]. Nature of the data set: Antagonist activity at PAR4 in human filtered plasma assessed as inhibition of PAR4-activated peptide AYPGPK-NH2 induced platelet aggregation at 10 nM preincubated for 5 mins followed by aggregation inducer addition and measured after 5 mins by light transmission aggregometry relative to control. It counts as functional, cell-free. To be noted: filed as antagonist, time 10.0 min.

The target in data set [13] is T2, Proteinase-activated receptor 1 (Homo sapiens). Nature of the data set: Antagonist activity at PAR1 in human plasma assessed as inhibition of PAR1-activated peptide SFLLRNPNDKY induced platelet aggregation upto 9 uM preincubated for 5 mins followed by aggregation inducer addition and measured after 5 mins by light transmission aggregometry. The class given is functional, cell-free. To be noted: time 10.0 min.

Data set [14] in a line: Oral bioavailability in Sprague-Dawley rat at 50 mg/kg. The class given is ADME, organism-based. The settings on record: in vivo.

Activity calls are given as the source filed them.

`COc1nn2cc(-c3cc4ccc5c(c4o3)OCCO5)nc2s1`: the half-life at 1 µM in [1] was found to be 12.2 min. Further, in the data set with Platelet [2], it took 3.2 nM to reach half-maximal inhibition (IC50). In the data set on Platelet [3], this molecule had an inhibition at 20 µM of 90.5%. For the same molecule, the Activity (in data set [4]; in the data set on Platelet [5]) was less than 30% throughout. Further, the outcome (in [6]; in the data set with Platelet [7]; in [8]; in data set [9]; in the data set on Platelet [10]; in data set [13]) was inactive. In data set [11], the outcome was Active. Further, the inhibition in [12] is 100%. Also, in data set [14], the bioavailability was found to be 0.94%.

What is called half-life is the time needed for the level to fall by half in the phase considered. As usually defined, the IC50 is the midpoint of a concentration-inhibition curve. A high value points to lower potency. A word on the inhibition: it is the share of the control response that was lost under treatment. As a reminder, the bioavailability is dose-corrected exposure relative to a reference, in per cent. High values mean good availability, low ones poor availability.
